System: rat stomach fundus strips
Method: Fundus strips (approximately 0.4×1 cm) were cut from the stomach of adult male Wistar rats parallel to the circular muscle fibers. They were placed between two platinum ring electrodes, 1 cm apart (Radnoti, ADInstruments, USA) in 10 ml tissue baths containing Krebs solution bubbled with 5% CO2 in O2 and maintained at 37° C. Tissues were suspended under 1.5 g resting tension. Changes of tension were measured isometrically with force transducers and recorded with a PowerLab 8/30 data acquisition system (ADInstruments, USA). Tissues were allowed to equilibrate for 60 min during which time bath solutions were changed every 15 min.
EFS was achieved by applying 0.5 ms pulses, 5 Hz frequency, at a maximally effective voltage of 70 V. EFS was applied for 30 sec at 3 min intervals for a 30 min initial period. This initial period was separated by a 5 min interval with wash out of the bath solution. Then, a second period of stimulation was started. […] Responses to the agents were measured and expressed as % of the mean of three or four pre-drug responses to EFS. All compounds were dissolved at 1 mM in distilled water or MeOH, as stock solutions.

EC50: 5 nM
Structure (SMILES): CCCCCCCC(=O)OC[C@H](NC(=O)[C@H](CO)NC(=O)CN)C(=O)N[C@@H](Cc1ccccc1)C(=O)N[C@@H](CC(C)C)C(=O)N[C@@H](CO)C(=O)N1CCC[C@H]1C(=O)N[C@@H](CCC(=O)O)C(=O)N[C@@H](Cc1c[nH]cn1)C(=O)N[C@@H](CCC(N)=O)C(=O)N[C@@H](CCCNC(=N)N)C(=O)N[C@H](C(=O)N[C@@H](CCC(N)=O)C(=O)N[C@@H](CCC(N)=O)C(=O)N[C@@H](CCCNC(=N)N)C(=O)N[C@@H](CCCCN)C(=O)N[C@@H](CCC(=O)O)C(=O)N[C@@H](CO)C(=O)N[C@@H](CCCCN)C(=O)N[C@@H](CCCCN)C(=O)N1CCC[C@H]1C(=O)N1CCC[C@H]1C(=O)N[C@@H](C)C(=O)N[C@@H](CCCCN)C(=O)N[C@@H](CC(C)C)C(=O)N[C@@H](CCC(N)=O)C(=O)N1CCC[C@H]1C(=O)N[C@@H](CCCNC(=N)N)C(=O)O)C(C)C [Ghrelin]

Reference: patent publication US10258602B2 (Ocera Therapeutics, Inc., priority 2007, dated 2019)
